# What was measured:
# Format in all cases: functional
# Conditions in all cases: HCT-116, 72 h, time 3 day
# HCT-116 [1] = assay: Antiproliferative activity against human HCT-116 cells assessed as cell growth inhibition at 20 uM after 3 days by ATPlite assay relative to control
# HCT-116 [2] = assay: Antiproliferative activity against human HCT-116 cells assessed as cell growth inhibition at 10 uM after 3 days by ATPlite assay relative to control
# HCT-116 [3] = assay: Antiproliferative activity against human HCT-116 cells assessed as cell growth inhibition at 1 uM after 3 days by ATPlite assay relative to control
# HCT-116 [4] = assay: Antiproliferative activity against human HCT-116 cells assessed as cell growth inhibition at 0.4 uM after 3 days by ATPlite assay relative to control
Structure (SMILES),inhibition at 20 µM (HCT-116 [1]) [%],inhibition at 10 µM (HCT-116 [2]) [%],inhibition at 1 µM (HCT-116 [3]) [%],inhibition at 0.4 µM (HCT-116 [4]) [%]
COc1ccc(/C=C/C(=O)O[C@@H]2CC[C@@H]3CCC[C@H](CC(=O)O)N3[C@H]2C)cc1,80.2,62.3,0.9,-6.1
COc1ccc(C(=O)O[C@@H]2CC[C@@H]3CCC[C@H](CC(=O)O)N3[C@H]2C)cc1OC,-13.1,-6.4,-5.5,-3.6
COc1ccc(C(=O)O[C@@H]2CC[C@@H]3CCC[C@H](CC(=O)O)N3[C@H]2C)c(OC)c1,-3.2,-4.7,-8,-6.1
C[C@H]1[C@H](OC(=O)c2ccccc2)CC[C@@H]2CCC[C@H](CC(=O)O)N21,-6.2,-10.2,-4.3,-12.8
COc1cccc2c1C(=O)c1c(O)c3c(c(O)c1C2=O)C[C@@](O)(C(=O)CO)C[C@@H]3O[C@H]1C[C@H](N)[C@H](O)[C@H](C)O1 [DOXORUBICIN],91.7,91.1,96.3,84.5
C[C@H]1[C@H](OC(=O)/C=C/c2ccccc2)CC[C@@H]2CCC[C@H](CC(=O)O)N21,0.7,-4.2,-7.8,-3.6
